SMILES strings stand for the structures. Read-outs that look alike come from different tables or passages of the source.

The IC50 is the midpoint of a concentration-inhibition curve.

The subject of one test is rat adjuvant arthritis. The conditions noted are these: Pierce J W, et al. (1997) J. Biol. Chem. 272, 21096-21103; cited from earlier work.
The next test has as its system NF-κB. In words: NF-κB luciferase reporter assay in A549/NF-κBLuc cells. Type of test: cell-based, human. The note with it: Homo sapiens, A549/NF-κBLuc, luciferase activity. As to the method: Using lipofectamine (Lifetech Oriental K. K., Tokyo) according to the conventional method, human lung cancer cell line A549 cells (ATCC catalog no. CCL185), which are known to express hiNOS by cytokine stimulation, were co-transfected with pNFκB-Luc, which are plasmid controlled by a NF-κB binding consensus sequence, and pSV2neo (Clontech, U.S.A.), and then A549/NF-κBLuc, the cell that has stably introduced pNFκB-Luc, was selected by adding G418 sulfate (1 mg/ml, Lifetech Oriental K. K.) to the culture medium.
The luciferase activity was measured using the Luciferase Assay System (Promega, U.S.A.).
On the technique in general: A reporter such as luciferase makes a cellular process visible.

A further test has as its system IL-1β. As to the kind of experiment: IL-1β mRNA level in heart by TaqMan PCR, murine myocarditis model. In kind it is in vivo, mouse. The conditions noted are these: 30 mg/kg intraperitoneally daily for 5 days, heart day 5, corrected with GAPDH, vs infected control; FIG. 6. As to the method: (§1) Four-week-old DBA/2 male mice were inoculated with EMC virus in the same manner as Example 3 followed by intraperitoneal administration of the compound of Production Example 7 dissolved in 10% DMSO or 10% DMSO only daily for 5 days starting 2 hours after inoculation. The whole hearts were excised from mice of the Production Example 7 compound group, 10% DMSO group and non-infected group on day 5 of viral infection, and after extracting RNA using ISOGEN (Wako Pure Chemical Industries), cDNA was obtained in accordance with the procedure of the SuperScript Preamplification System (Lifetech Oriental). The mRNA levels of TNF-α, IL-1β and iNOS were assayed by TaqMan PCR using this cDNA as templates. Detection was performed using the PRISM7700 (PE Biosystems Japan) in accordance with the protocol of the PCR assay system (PE Biosystems Japan). The following primers and TaqMan probes were used for detection.
(§2) The amount of RNA of each sample was corrected with the amount of glyceraldehyde-3-phosphate dehydrogenase (GAPDH) gene.
(§3) Infected group (administered compound of Production Example 7) (n=10) Administration of NF-κB inhibitor (Production Example 7) at 30 mg/kg body weight

The next test relates to iNOS. In words: iNOS mRNA level in heart by TaqMan PCR, murine myocarditis model. In kind it is in vivo, mouse. The conditions noted are these: 30 mg/kg intraperitoneally daily for 5 days, heart day 5, corrected with GAPDH, vs infected control; FIG. 6. On the procedure:
as §1, §2, §3

The subject of test [1] is EMC virus-inoculated DBA/2 mice (viral myocarditis). In words: Survival rate in murine viral myocarditis model. The conditions noted are these: 10% DMSO, Kaplan-Meier p<0.05, FIG. 3. Type of test: in vivo, mouse. As to the method:
Viral myocarditis mice were prepared using the procedure described below in accordance with a known method (Shioi T. et al. (1997) J. Mol. Cell. Cardiol., 29, 2327-2334). Variant M (acquired from the American Type Culture Collection) was used for the EMC virus for inoculation and prepared to 100 pfu/ml in Eagle's MEM medium (Nissui Pharmaceutical). Four-week-old DBA/2 male mice were divided into two groups, and intraperitoneally inoculated with EMC virus at 10 pfu/animal. Test compound was then administered intraperitoneally and daily for 14 days under the following conditions to each group starting 3 hours after inoculation.
The test compound was used after dissolving in 0.5% aqueous gum arabic solution (3 mg/ml). In the present example, the compound of Production Example 4 was used in the test as the NF-κB inhibitor.
Test group (n=10): Administration of NF-κB inhibitor (Production Example 4) at 30 mg/kg body weight Control group (n=10): 0.5% aqueous gum arabic solution
The experiment was conducted in the following three groups using the same method as Example 2 and the compound of Production Example 7 for the NF-κB inhibitor. The test compound was used after dissolving in 10% aqueous dimethylsulfoxide solution (DMSO) (test group 1: 0.3 mg/ml, test group 2: 3 mg/ml). The survival rates were tested for the presence of a significant difference according to the Kaplan-Meier method, and statistical significance was defined as p<0.05.
Test group 1 (n=21): Administration of NF-κB inhibitor (Production Example 7) at 3 mg/kg body weight
Test group 2 (n=21): Administration of NF-κB inhibitor (Production Example 7) at 30 mg/kg body weight
Four-week-old DBA/2 male mice were inoculated with EMC virus using the same method as Example 2, and the test compound was administered orally and daily for 14 days under the following conditions to each group starting 2 hours after inoculation.
The test compound was used after dissolving in 10% aqueous sulfobutylcyclodextrin solution (3 mg/ml). In the present example, the compound of Production Example 44 was used in the test as the NF-κB inhibitor.
Test group (n=20): Administration of NF-κB inhibitor (Production Example 44) at 30 mg/kg body weight

The test system of a further test is TNF-α. As to the kind of experiment: TNF-α mRNA level in heart by TaqMan PCR, murine myocarditis model. Type of test: in vivo, mouse. The note with it: 30 mg/kg intraperitoneally daily for 5 days, heart day 5, corrected with GAPDH, vs infected control; FIG. 6. On the procedure: as §1, §2, §3
Background: Real-time PCR tracks product formation cycle by cycle.

Test [2] concerns EMC virus-inoculated DBA/2 mice (viral myocarditis). In words: Histopathology of heart (cardiac necrosis, cellular infiltration) in murine myocarditis model. In kind it is in vivo, mouse. The note with it: 30 mg/kg, hearts on days 7 and 8, score 0-4, vs control group; FIG. 5. On the procedure: NF-κB inhibitor (compound of Production Example 7) was administered at 30 mg/kg body weight using the similar method as Example 3 to the mouse myocarditis model prepared in the similar manner as Example 2. The whole hearts of those mice alive on days 7 and 8 (n=10) were extripated, exsanguinated and washed with phosphate-buffered saline. Subsequently, paraffin embedded and sectioned specimens were prepared by fixing the tissue with 10% formalin. The specimens were stained with hematoxylin-eosin stain followed by examination of histopathological findings.
In cross-sectional images taken along the minor axis of the left ventricle under light microscopy, the percentage of cardiac necrosis features or cellular infiltration was classified into 0 (no damage), 1 (less than 25%), 2 (25% to less than 50%), 3 (50% to less than 75%) and 4 (75% or more), and respectively observed by two observers. The evaluations of the two observers were averaged to obtain a single evaluation. The results obtained were tested for the presence of a significant difference by analysis of variance (ANOVA) according to Bonferroni's multiple comparison method, and statistical significance was defined as p<0.05.
Test group (n=10): Administration of NF-κB inhibitor (Production Example 7) at 30 mg/kg body weight

As to `CC(C)(C)c1ccc(S(=O)(=O)/C=C/C#N)cc1` [BAY11-7083], in the test on rat adjuvant arthritis, the “effect in rat adjuvant arthritis” value is “exhibit an effect”.

With `COC1=C(OC)C(=O)C(Cc2ccc(CCC(=O)N3CCCCC3)cc2)=C(C)C1=O` [Prod. Ex. 7], the IC50 in the test on NF-κB (IL-1β (1 ng/ml) for 4 hours, read-out: IC50 (μM) IL-1 stimulation) was found to be 4 µM; with NF-κB (TNF-α (500 ng/ml) for 4 hours, read-out: IC50 (μM) TNF stimulation), 10 µM. Moreover, in the test with IL-1β, the “expression of IL-1β at the mRNA level” value is on record as “significantly inhibited”. The “expression of iNOS at the mRNA level” value in the test with iNOS is recorded as “significantly inhibited”. The survival rate entry in test [1] (3 mg/kg intraperitoneally daily for 14 days) and in test [1] (30 mg/kg intraperitoneally daily for 14 days) was “significantly improve survival rate” in each case. Besides, the “expression of TNF-α at the mRNA level” value in the test on TNF-α is reported as “significantly inhibited”. Moreover, the cardiac necrosis result in test [2] was “significantly inhibited”. The cellular infiltration entry in test [2] is listed as “significantly inhibited”.

These data come from patent publication US6703421B1, “Methods of using phenylmethylbenzoquinone and hydroquinone compounds for treatment of myocarditis, dilated cardiomyopathy and heart failure” (Daiichi Suntory Pharma Co., Ltd., priority 1999, dated 2004).
